Consider one molecule from patent publication US9283279B2, “Targeted polymeric conjugates and uses thereof” (priority 2011, dated 2016).

The nature of data set [1]: Pharmacokinetic studies in mice. Type of data set: in vivo, female Balb/C mice. The method, then:
The mice were randomly divided in three groups of 10 animals. […] To 50 μL of plasma, 350 μL of CH3CN was added for protein precipitation and the resulting mixture was centrifuged at 20,000 g for 5 minutes. A 300 μL aliquot of the supernatant was collected and freeze-dried. The residue was dissolved in 50 μL of CH3OH and analyzed by RP-HPLC under the condition reported hereinabove.

Data set [2] deals with circulating endothelial cells (CEC) and circulating endothelial progenitor (CEP). The note with it: day 11 of treatment.
For data set [3], the system named is 4T1-mCherry murine mammary adenocarcinoma in the tibia. The data set is classed as in vivo, Balb/c female mice. The note with it: 4T1-mCherry tumors in the tibia.
For data set [4] the following is noted: blood samples on day 11; 15 mg/kg PTX or equivalent.
Method: Samples were counted no longer than five minutes after blood was drawn from mice. Ten μl of blood samples were mixed with 90 μl of track solution (1% acetic acid in DDW), and cells were counted by a Z1 Coulter® Particle Counter (Beckman Coulter™). Data is expressed as mean±s.e.m.
The test system of data set [5] is PC3 human prostate adenocarcinoma cells. In words: PC3 cell viability / proliferation assay (MTT). The data set is classed as cell-based. The following applies: PC-3, 72 hours incubation. As to the method: PC3 cells were plated onto 96 well plate (5×10^3 cells/well) in DMEM supplemented with 5% FBS and incubated for 24 h (37° C.; 5% CO2). […] Following incubation, PC3 cells were counted by MTT.

Data set [6] concerns 4T1-mCherry tumors in the tibia. In words: Microvessel density (CD34 staining), 4T1-mCherry model. The following applies: compared to saline-treated control group. Type of data set: in vivo, Balb/c female mice.
Method: Immunohistochemistry of tumors in the tibia was performed using samples fixed with 4% paraformaldehyde, following decalcification in EDTA and paraffin embedding by the standard procedure. Paraffin sections of 4 μm were de-paraffinized, rehydrated, and stained by hematoxylin and eosin (H&E). For CD34 staining, slides were deparaffinized and pre-treated with 10 mM citrate buffer, pH=6.0, for 20 minutes in a steam pressure cooker (Decloaking Chamber, BioCare Medical, Walnut Creek, Calif.).
All further steps were performed at room temperature in a hydrated chamber. Slides were covered with Peroxidase Block (Merck, Germany) for 10 minutes to quench endogenous peroxidase activity, followed by incubation with 2% of horse serum in 50 mM Tris-HCl, pH 7.4, for 30 minutes to block non-specific binding sites. Primary rat anti-murine CD34 antibody (MEC 14.7 1:50 dilution; Abcam, Cambridge, Mass.) was applied in 1% rabbit serum albumin in Tris-HCl, pH 7.4 at 4° overnight. Slides were washed in 50 mM TrisHCl, pH 7.4 and rabbit anti-rat antibody (1:750 dilution; Vector Laboratories, Calif., USA) was applied for 30 minutes. Following further washing, immunoperoxidase staining was developed using HistoMark TrueBlue peroxidase system (KPL, USA) per the manufacturer instructions and counterstained with safranin.
[7] abbreviates: female, mouse, plasma, iv, i.v. 10 mg/Kg PTX equiv., Balb/C mice.

By Vd is commonly meant the apparent volume that relates the amount in the body to the concentration in plasma or blood. For orientation: clearance means a measure of how efficiently the substance is removed, as volume per time. In general, IC50 refers to the concentration that gives 50% inhibition. Read a low IC50 as greater potency. `CC(=O)O[C@H]1C(=O)[C@@]2(C)[C@H]([C@H](OC(=O)c3ccccc3)[C@]3(O)C[C@H](OC(=O)[C@H](O)[C@@H](NC(=O)c4ccccc4)c4ccccc4)C(C)=C1C3(C)C)[C@]1(OC(C)=O)CO[C@@H]1C[C@@H]2O` [PTX, Paclitaxel]: in data set [1] (setting [7]), the Vd came out at 0.161 ± 0.0021 L and the clearance worked out at 7.4 ± 1.5 mL/min. Further, the half-life in data set [1] (female, mouse, plasma, iv, i.v. 10 mg/Kg PTX equiv., Balb/C mice, read-out: T1/2β (elimination half-life)) came out at 15.1 min. For the same molecule, the T1/2α in data set [1] (i.v. 10 mg/Kg PTX equiv., Balb/C mice) came to 1.3 ± 0.3. Moreover, the “time at which PTX was not detectable” value in data set [1] (serum PTX by RP-HPLC, i.v. 10 mg/Kg) is 60 min. Further, in data set [2], the “viable CEP levels” value is “increase”. Further, in data set [3], the “H&E histology of the tibia” value was “tumor filled the bone marrow space and destroyed both trabecular and cortical bone”. Besides, the WBC counts result in data set [4] is on record as “significant decrease”. Moreover, the 50% inhibitory concentration (IC50) in data set [5] was in the range of 25 to 60 nM. Besides, in data set [6], the “reduction in micro-vessel density (MVD)” value is on record as “about 50%”.
